Like-named read-outs stand apart in the source and are kept apart here.
Assays:
Type in all cases: cell-based
[1] = molecular target: T1, succinate dehydrogenase (complex II) (Rattus norvegicus, UniProt Q920L2); experiment: Inhibition of respiration by 3-nitropropionic acid in whole; settings: endogenous substrates
[2] = molecular target: T1, succinate dehydrogenase (complex II); settings: for IC50: IC50 Complex II
[3] = molecular target: T2, cytochrome bc1 oxidoreductase (complex III) (Rattus norvegicus, UniProt P00159); experiment: Inhibition of respiration by antimycin A in whole; settings: endogenous substrates
[4] = molecular target: T2, cytochrome bc1 oxidoreductase (complex III); settings: for decrease of IC50 with exogenous vs endogenous substrates: excess exogenous glutamate, malate, succinate

T1 sequence (Q920L2 whole entry, looked up, one chain of several): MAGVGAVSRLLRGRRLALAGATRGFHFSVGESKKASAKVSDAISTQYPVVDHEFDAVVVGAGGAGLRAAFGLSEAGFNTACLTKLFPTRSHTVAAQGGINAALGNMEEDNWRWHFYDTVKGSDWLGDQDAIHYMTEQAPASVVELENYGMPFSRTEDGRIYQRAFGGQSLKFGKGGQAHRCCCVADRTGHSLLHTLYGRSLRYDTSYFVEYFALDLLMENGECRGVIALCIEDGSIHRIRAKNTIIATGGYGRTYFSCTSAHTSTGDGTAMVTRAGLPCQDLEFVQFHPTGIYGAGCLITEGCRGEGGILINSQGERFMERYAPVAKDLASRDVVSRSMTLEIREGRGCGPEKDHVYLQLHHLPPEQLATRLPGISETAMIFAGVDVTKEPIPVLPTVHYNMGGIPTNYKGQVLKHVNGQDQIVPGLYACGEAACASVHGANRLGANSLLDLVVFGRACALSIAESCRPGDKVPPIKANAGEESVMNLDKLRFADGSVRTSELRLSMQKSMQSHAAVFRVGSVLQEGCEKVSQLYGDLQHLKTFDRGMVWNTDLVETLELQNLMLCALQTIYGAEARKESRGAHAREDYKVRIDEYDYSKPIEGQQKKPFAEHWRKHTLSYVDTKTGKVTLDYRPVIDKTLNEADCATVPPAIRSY

Row | SMILES | percent of initial rate remaining at flux point ([1]; 8 mM 3-NP, neurons from middle-age rats) [%] | increase of IC50 with age ([1]; old vs middle-age neurons, insignificant) [%] | IC50 ([2]; MA) [µM] | IC50 ([2]; Old) [µM] | increase of IC50 with exogenous vs endogenous substrates ([2]; neurons from middle-age rats, complex I inhibited, excess exogenous succinate) [%] | decrease of IC50 with exogenous vs endogenous substrates ([2]; neurons from old rats, complex I inhibited, excess exogenous succinate) [%] | decrease of IC50 with age ([2]; old vs middle-age permeabilized neurons, exogenous substrates, insignificant) [%] | IC50 ([3]; IC50 Complex III, Old, neurons from old (24 month) rats) [µM] | decrease of IC50 with age ([3]; old vs middle-age neurons, p=0.006) [%] | decrease of IC50 with exogenous vs endogenous substrates ([4]; neurons from middle-age rats) [%] | decrease of IC50 with exogenous vs endogenous substrates ([4]; neurons from old rats) [%] | decrease of IC50 with age ([4]; old vs middle-age permeabilized neurons, exogenous substrates, p=0.0001) [%]
1 | O=C(O)CC[N+](=O)[O-] [3-NP, 3-nitropropionic acid] | 39 | 49 | 6100 | 2100 | 7 | 75 | 66 |  |  |  |  | 
2 | CCCCCC[C@H]1C(=O)O[C@H](C)[C@H](NC(=O)c2cccc(NC=O)c2O)C(=O)O[C@@H](C)[C@@H]1OC(=O)CC(C)C [antimycin A] |  |  |  |  |  |  |  | 0.16 | 35 | 46 | 68 | 60

Reference: paper PMC2812684 (Biochimica et biophysica acta, 2009)
